According to US20240082118A1, “TOPICAL COMPOSITIONS AND METHODS OF PREPARING THE SAME” (LANDA LABS (2012) LTD., priority 2021, published 2024):

Test system: skin of pigs' ears
Assay: Ex vivo penetration of fluorescently marked nano-elements into pig ear skin
Assay type: in vitro ADME
Conditions: marker in water, or in water with the surfactants of Composition 2.21
Procedure: The distribution of nano-elements of the present compositions in various skin layers was tested ex vivo by applying onto the skin of pigs' ears nano-elements including a fluorescent dye (Nile red) allowing histological monitoring of their presence within the layers of the tissue onto which they were applied.
Tested composition (2) was prepared by adding 2 mg of Nile red fluorescent marker during the preparation of the CSSC premix, as described in Example 2.
The compositions were tested on two freshly harvested pig ears, collected on the same day, and kept fresh and cooled till use. The ears were washed with excess saline solution and wiped dry. They were then immobilized for the duration of the study by taping them onto a glass surface, their inner side facing down. Each ear was marked on its outer side with 6 circles having a diameter of about 1 cm.
25 microliters of each one of the samples were applied onto the skin near the center of the marked circle, each tested composition being applied in two or more separate circles for repeats. The ears with the applied test samples were then placed in an oven for an incubation time of 20 hours at a temperature of 32° C., to simulate the pigs' body temperature. […]
The tissue sections were evaluated by an expert for the presence and intensity of the marker using a fluorescence microscope at objective magnification of ×10. […]

## CCN(CC)c1ccc2nc3c4ccccc4c(=O)cc-3oc2c1 [Nile red, 9-(diethylamino)-5H-benzo[a]phenoxazin-5-one]
  penetration of the fluorescent marker into skin without nano-elements: No penetration
